In PubChem BioAssay (NCI):
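Protocol summary: plate cells (96-well), add compound at 5 concentrations, incubate 48 h, interpolate endpoints linearly. GI50: concentration for 50% inhibition of growth. The concentration for full growth arrest is given as TGI.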

Tests used:
Test in all cases: DTP human tumour cell line panel, 48 h
A549 NSCLC = tested on: A549 NSCLC
NCI-H460 lung = tested on: NCI-H460 lung
TK-10 renal = tested on: TK-10 renal
U251 CNS = tested on: U251 CNS
UO-31 renal = tested on: UO-31 renal
DU-145 prostate = tested on: DU-145 prostate
HS 578T breast = tested on: HS 578T breast
NCI/ADR-RES ovarian = tested on: NCI/ADR-RES ovarian
PC-3 prostate = tested on: PC-3 prostate
T-47D breast = tested on: T-47D breast

With `CCOP(=O)(OCC)C(C(=O)OC)C(=O)C(=O)Nc1cccc([N+](=O)[O-])c1` (stereo not drawn) the TGI (A549 NSCLC) was over 100 µM, the TGI (NCI-H460 lung) was over 100 µM and the TGI (TK-10 renal) was over 100 µM. The TGI (U251 CNS) was over 100 µM and the TGI (UO-31 renal) was over 100 µM.

`O=c1oc2ccccc2cc1P(=O)(O)O` was tested, and the TGI (A549 NSCLC) was over 100 µM, the TGI (DU-145 prostate) was over 100 µM and the TGI (HS 578T breast) was over 100 µM. For the same compound, the TGI (NCI-H460 lung) was over 100 µM, the TGI (NCI/ADR-RES ovarian) was over 100 µM and the TGI (PC-3 prostate) was over 100 µM. The TGI (T-47D breast) was over 100 µM, the TGI (TK-10 renal) was over 100 µM and the TGI (U251 CNS) was over 100 µM.

`O=NN(CC1(O)OCC(O)C(O)C1O)C(Cc1c[nH]c2ccccc12)C(=O)O` (stereo not drawn) showed a TGI (A549 NSCLC) of over 100 µM, a TGI (NCI-H460 lung) of over 100 µM and a TGI (TK-10 renal) of over 100 µM. It also gave a TGI (U251 CNS) of over 100 µM.

In the case of `CN(C)C(=C1C(Br)=C(Br)C(Br)=C1Br)N(C)C`, the TGI (A549 NSCLC) is reported as over 100 µM, the TGI (NCI-H460 lung) is reported as over 100 µM and the TGI (TK-10 renal) is reported as over 100 µM. For the same compound, the TGI (U251 CNS) was over 100 µM and the TGI (UO-31 renal) was over 100 µM.

`O=C1C2C3SC(c4cc5ccccc5cc43)C2C(=O)N1c1ccccc1` (stereo not drawn) was tested, and the TGI (A549 NSCLC) was over 100 µM, the TGI (TK-10 renal) was over 100 µM and the TGI (U251 CNS) was over 100 µM. For the same compound, the TGI (UO-31 renal) was over 100 µM.

Compound `Oc1ccc(CCNc2nc3ccccc3c3[nH]c4ccccc4c23)cc1O` has a GI50 (A549 NSCLC) of 2.26 µM, a TGI (A549 NSCLC) of 5.95 µM and a GI50 (DU-145 prostate) of 2.45 µM. It also gave a TGI (DU-145 prostate) of 7.44 µM, a GI50 (HS 578T breast) of 8.28 µM and a TGI (HS 578T breast) of over 100 µM. The GI50 (NCI-H460 lung) was 2.17 µM, the TGI (NCI-H460 lung) was 5.54 µM and the GI50 (NCI/ADR-RES ovarian) was 9.15 µM. For the same compound, the TGI (NCI/ADR-RES ovarian) was 32.2 µM, the GI50 (PC-3 prostate) was 1.51 µM and the TGI (PC-3 prostate) was 3.63 µM. For the same compound, the GI50 (T-47D breast) was 14.2 µM, the TGI (T-47D breast) was 32.2 µM and the GI50 (TK-10 renal) was 5.37 µM. The TGI (TK-10 renal) was 19 µM, the GI50 (U251 CNS) was 2.53 µM and the TGI (U251 CNS) was 6.51 µM.

`O=C(O)c1ccccc1NS(=O)(=O)c1ccc(Cl)cc1` was tested, and the TGI (A549 NSCLC) was over 100 µM, the TGI (NCI-H460 lung) was over 100 µM and the TGI (TK-10 renal) was over 100 µM. It also gave a TGI (U251 CNS) of over 100 µM and a TGI (UO-31 renal) of over 100 µM.

`CCN(CC)CCN1C(=O)C2C3C(C)=CC(OC(C)=O)(CC3C)C2C1=O` (stereo not drawn) gave a GI50 (A549 NSCLC) of over 100 µM, a TGI (A549 NSCLC) of over 100 µM and a GI50 (DU-145 prostate) of over 100 µM. The TGI (DU-145 prostate) was over 100 µM, the GI50 (HS 578T breast) was 75.3 µM and the TGI (HS 578T breast) was over 100 µM. It also gave a GI50 (NCI/ADR-RES ovarian) of over 100 µM, a TGI (NCI/ADR-RES ovarian) of over 100 µM and a GI50 (PC-3 prostate) of over 100 µM. It also gave a TGI (PC-3 prostate) of over 100 µM, a GI50 (T-47D breast) of over 100 µM and a TGI (T-47D breast) of over 100 µM. It also gave a GI50 (TK-10 renal) of over 100 µM, a TGI (TK-10 renal) of over 100 µM and a GI50 (U251 CNS) of over 100 µM. For the same compound, the TGI (U251 CNS) was over 100 µM, the GI50 (UO-31 renal) was over 100 µM and the TGI (UO-31 renal) was over 100 µM.

In the case of `CN(N=O)C(=O)NC(CCCCNC(=O)OCc1ccccc1)C(=O)OCc1ccccc1` (stereo not drawn), the TGI (A549 NSCLC) is reported as over 100 µM, the TGI (NCI-H460 lung) is reported as over 100 µM and the TGI (TK-10 renal) is reported as over 100 µM. It also gave a TGI (U251 CNS) of over 100 µM and a TGI (UO-31 renal) of 38.3 µM.

With `CN(c1ccccc1)c1nc(=[N+](C)C)ss1` the TGI (A549 NSCLC) was over 100 µM, the TGI (NCI-H460 lung) was over 100 µM and the TGI (TK-10 renal) was over 100 µM. The TGI (U251 CNS) was over 100 µM and the TGI (UO-31 renal) was over 100 µM.

Compound `CCC(=O)N1C(=S)SC[C@H]1C(=O)OC` has a TGI (A549 NSCLC) of over 100 µM, a TGI (TK-10 renal) of over 100 µM and a TGI (U251 CNS) of over 100 µM. For the same compound, the TGI (UO-31 renal) was over 100 µM.

With `O=C(c1ccccc1)[C@H]1Nc2ccc(Cl)cc2[C@H]2c3ccccc3O[C@H]21` the TGI (A549 NSCLC) was 30.2 µM, the TGI (NCI-H460 lung) was 34.3 µM and the TGI (TK-10 renal) was 30.4 µM. For the same compound, the TGI (U251 CNS) was 29.2 µM and the TGI (UO-31 renal) was 18.2 µM.

With `O=C1CN=C(c2ccccc2)c2ccncc2N1` the TGI (A549 NSCLC) was over 100 µM, the TGI (TK-10 renal) was over 100 µM and the TGI (U251 CNS) was over 100 µM. The TGI (UO-31 renal) was over 100 µM.

`O=c1c2ccccc2c(=O)n2n1-c1cccc(c1)CSSCc1cccc-2c1` showed a GI50 (A549 NSCLC) of over 100 µM, a TGI (A549 NSCLC) of over 100 µM and a GI50 (TK-10 renal) of over 100 µM. It also gave a TGI (TK-10 renal) of over 100 µM, a TGI (U251 CNS) of over 100 µM and a GI50 (UO-31 renal) of over 100 µM. It also gave a TGI (UO-31 renal) of over 100 µM.
